Results published in ChEMBL document CHEMBL2016478, “Lead optimisation of the N1 substituent of a novel series of indazole arylsulfonamides as CCR4 antagonists and identification of a candidate for clinical investigation” (Bioorg Med Chem Lett, 2012).
Converted amounts (≈) assume the structure as drawn.

Experiments:
[1] = Solubility of the compound by chemiluminescent nitrogen detection assay; assay type: physicochemical
[2] = molecular target: T1, C-C chemokine receptor type 4 (Homo sapiens, UniProt P51679); experiment: Antagonist activity at human CCR4 in human whole blood assessed as inhibition of TARC-induced CD4+ CCR4+lymphocyte chemotaxis measuring F-actin content; assay type: functional, tissue-based; conditions: read-out: pA2 (converted)
T1 sequence (P51679 whole entry): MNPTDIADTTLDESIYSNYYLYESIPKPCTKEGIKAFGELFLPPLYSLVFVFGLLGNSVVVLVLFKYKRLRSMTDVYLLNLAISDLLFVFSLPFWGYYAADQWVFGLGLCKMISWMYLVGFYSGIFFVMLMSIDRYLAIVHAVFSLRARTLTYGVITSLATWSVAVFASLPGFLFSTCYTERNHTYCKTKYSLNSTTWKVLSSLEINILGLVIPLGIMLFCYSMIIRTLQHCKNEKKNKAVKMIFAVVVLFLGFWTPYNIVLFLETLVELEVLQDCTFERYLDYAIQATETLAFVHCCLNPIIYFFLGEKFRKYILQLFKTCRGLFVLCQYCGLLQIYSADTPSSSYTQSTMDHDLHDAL

[3] = molecular target: T1, C-C chemokine receptor type 4; experiment: Antagonist activity at human CCR4 expressed in CHO membranes assessed as inhibition of [35S]-GTPgammaS binding by scintillation counting; assay type: functional, cell membranes
[4] = molecular target: T1, C-C chemokine receptor type 4
Description: Displacement of [125I]TARC from human CCR4 expressed in CHO membranes by SPA

[5] = Clearance in beagle dog at […], iv and 1.1 mg/kg, po; assay type: ADME, organism-based, Canis lupus familiaris; conditions: in vivo
[6] = Clearance in CD rat at 1 mg/kg, iv and 1 mg/kg, po; conditions: in vivo
[7] = Volume of distribution at steady state in beagle dog at […], iv and 1.1 mg/kg, po; assay type: ADME, organism-based, Canis lupus familiaris; conditions: in vivo, read-out: Vdss
[8] = Oral bioavailability in CD rat at 1 mg/kg; assay type: ADME, organism-based; conditions: in vivo
[9] = Volume of distribution at steady state in CD rat at 1 mg/kg, iv and 1 mg/kg, po; assay type: ADME, organism-based; conditions: in vivo, read-out: Vdss
[10] = Permeability across MDCK cells; assay type: ADME, cell-based, Canis lupus familiaris; conditions: dog, read-out: permeability
[11] = Oral bioavailability in beagle dog at 1.1 mg/kg; assay type: ADME, organism-based, Canis lupus familiaris; conditions: in vivo
Canis familiaris = experiment: Clearance in beagle dog at […], iv and 1.1 mg/kg, po relative to liver blood flow; assay type: ADME, organism-based, Canis lupus familiaris; conditions: in vivo
Rattus norvegicus = experiment: Clearance in CD rat at 1 mg/kg, iv and 1 mg/kg, po relative to liver blood flow; assay type: ADME, organism-based; conditions: in vivo
[12] = Volume of distribution at steady state in beagle dog at 0.54 mg/kg, iv and 1.1 mg/kg, po; assay type: ADME, organism-based, Canis lupus familiaris; conditions: in vivo, read-out: Vdss

## COc1ccc(Cn2nc(NS(=O)(=O)c3ccc(Cl)s3)c3c(OC)cccc32)cc1OC
[1]
  solubility: 46 µg/mL (≈ 93.1 µM)
[2]
  Kb: 2510 nM
[3]
  IC50: 22.9 nM
[4]
  Ki: 20 nM

## COc1cccc(Cn2nc(NS(=O)(=O)c3ccc(Cl)s3)c3c(OC)cccc32)c1
[1]
  solubility: 12 µg/mL (≈ 25.9 µM)
[3]
  IC50: 158 nM
[4]
  Ki: 126 nM

## COc1ccc(COc2nc(Br)cnc2NS(=O)(=O)c2ccc(C)cc2)cc1OCCN(C)C
[1]
  solubility: 170 µg/mL (≈ 308 µM)

## COc1cccc2c1c(NS(=O)(=O)c1ccc(Cl)s1)nn2Cc1ccccc1CO
[1]
  solubility: 74 µg/mL (≈ 159 µM)
[3]
  IC50: 324 nM
[4]
  Ki: 251 nM

## COc1cccc2c1c(NS(=O)(=O)c1ccc(Cl)s1)nn2Cc1cccc(CO)c1
[1]
  solubility: 127 µg/mL (≈ 274 µM)
[2]
  Kb: 6310 nM
[3]
  IC50: 32.4 nM
[4]
  Ki: 39.8 nM

## COc1cccc2c1c(NS(=O)(=O)c1ccc(Cl)s1)nn2Cc1ccc(CO)cc1
[1]
  solubility: 123 µg/mL (≈ 265 µM)
[3]
  IC50: 47.9 nM
[4]
  Ki: 50.1 nM

## COc1ccc(Cn2nc(NS(=O)(=O)c3ccc(Cl)s3)c3c(OC)cccc32)cc1
[1]
  solubility: 7 µg/mL (≈ 15.1 µM)
[4]
  Ki: 251 nM

## COc1cccc2c1c(NS(=O)(=O)c1ccc(Cl)s1)nn2Cc1ccccc1
[1]
  solubility: 1 µg/mL (≈ 2.3 µM)
[2]
  Kb: 6310 nM
[3]
  IC50: 389 nM
[4]
  Ki: 251 nM

## COc1cccc2c1c(NS(=O)(=O)c1ccc(Cl)s1)nn2Cc1cccc(CNC(=O)C(C)(C)O)c1
[5]
  clearance: 9 mL/min/kg
[6]
  clearance: 15 mL/min/kg
[7]
  Vd: 2.2 L/kg
[8]
  bioavailability: 85%
[9]
  Vd: 1.9 L/kg
[10]
  Papp: 13.2 ×10⁻⁶ cm/s
[1]
  solubility: 162 µg/mL (≈ 295 µM)
[11]
  bioavailability: 97%
[2]
  Kb: 631 nM
[3]
  IC50: 14.8 nM
Canis familiaris
  CLH: 29%
Rattus norvegicus
  CLH: 18%
[4]
  Ki: 10 nM

## COc1cccc2c1c(NS(=O)(=O)c1ccc(Cl)s1)nn2Cc1cccc(CNC(=O)CO)c1
[1]
  solubility: 167 µg/mL (≈ 321 µM)
[2]
  Kb: 2000 nM
[3]
  IC50: 27.5 nM
[4]
  Ki: 15.8 nM

## COc1cccc2c1c(NS(=O)(=O)c1ccc(Cl)s1)nn2Cc1cccc(C(=O)N(C)C)c1
[1]
  solubility: 160 µg/mL (≈ 317 µM)

## COc1cccc2c1c(NS(=O)(=O)c1ccc(Cl)s1)nn2Cc1cccc(CN(C)C(C)=O)c1
[1]
  solubility: 151 µg/mL (≈ 291 µM)
[3]
  IC50: 129 nM

## COc1ccccc1Cn1nc(NS(=O)(=O)c2ccc(Cl)s2)c2c(OC)cccc21
[1]
  solubility: 12 µg/mL (≈ 25.9 µM)
[4]
  Ki: 158 nM

## CNC(=O)c1cccc(Cn2nc(NS(=O)(=O)c3ccc(Cl)s3)c3c(OC)cccc32)c1
[1]
  solubility: 167 µg/mL (≈ 340 µM)
[3]
  IC50: 79.4 nM
[4]
  Ki: 316 nM

## COc1cccc2c1c(NS(=O)(=O)c1ccc(Cl)s1)nn2Cc1cccc(CNC(=O)C(C)O)c1 (centres undefined)
[1]
  solubility: 146 µg/mL (≈ 273 µM)
[2]
  Kb: 631 nM
[3]
  IC50: 12.6 nM
[4]
  Ki: 7.94 nM

## COc1cccc2c1c(NS(=O)(=O)c1ccc(Cl)s1)nn2Cc1cccc(CNC(C)=O)c1
[12]
  Vd: 3.2 L/kg
[8]
  bioavailability: 100%
[9]
  Vd: 0.57 L/kg
[10]
  Papp: 25.4 ×10⁻⁶ cm/s
[1]
  solubility: 124 µg/mL (≈ 246 µM)
[11]
  bioavailability: 49%

## COc1cccc2c1c(NS(=O)(=O)c1ccc(Cl)s1)nn2Cc1cccc(CN)c1
[1]
  solubility: 17 µg/mL (≈ 36.7 µM)
[2]
  Kb: 1000 nM
[3]
  IC50: 91.2 nM
[4]
  Ki: 100 nM

## COc1cccc2c1c(NS(=O)(=O)c1ccc(Cl)s1)nn2Cc1ccc(CNC(C)=O)cc1
[1]
  solubility: 104 µg/mL (≈ 206 µM)
[4]
  Ki: 158 nM

## COc1cccc2c1c(NS(=O)(=O)c1ccc(Cl)s1)nn2Cc1cccc(C(N)=O)c1
[1]
  solubility: 140 µg/mL (≈ 294 µM)
[2]
  Kb: 1580 nM
[3]
  IC50: 55 nM
[4]
  Ki: 39.8 nM
